Results as given in publication PMC7795425, “Synthesis and Biological Activity of Brassinosteroid Analogues with a Nitrogen-Containing Side Chain” (International Journal of Molecular Sciences, 2020).
Entries after “also recorded” stand apart in the source; their conditions may differ.

Legend:
rice leaf lamina = test system: rice leaf lamina; design: method as in PMID 11674612; settings: all doses studied; cited from earlier work
[1] = Calcein AM cytotoxicity assay, BJ; type: cell-based; settings: human, BJ foreskin fibroblasts (normal cell line), IC50 > 50 µM means inactive, read-out: Cytotoxic activity IC50
Procedure: (§1) The effect of the prepared BRs derivatives on the viability (in Calcein AM assays) of BJ human fibroblasts (as an example of a “normal” cell line) and human cancer cell lines of various histopathological origins, including: T-lymphoblastic leukemia CEM, breast carcinoma MCF7 and cervical carcinoma cell line HeLa, was also studied. Cells of all these lines were exposed to six 3-fold dilutions of each drug for 72 h prior to determination of cell survival. The IC50 (concentration leading to 50% inhibition of viability) values obtained from the Calcein AM cytotoxicity assay were calculated. […] All tested BR nitrogen-containing derivatives had no detectable activity, even when tested in concentrations of up to 50 µM.
(§2) The screening cell lines: T-lymphoblastic leukemia CEM; breast carcinoma MCF7 (estrogen-sensitive); cervical carcinoma cell line HeLa; and human foreskin fibroblasts BJ, were obtained from the American Type Culture Collection (Manassas, VA, USA). Cells were cultured in DMEM (Dulbecco’s Modified Eagle Medium, Sigma, St. Louis, MO, USA). Media used were supplemented with 10% fetal bovine serum, 2mM L-glutamine and 1% penicillin–streptomycin. The cell lines were maintained under standard cell culture conditions at 37 °C and 5% CO2 in a humid environment.
(§3) Cells were subcultured twice or three times a week using the standard trypsinization procedure. Cytotoxicity in cancer cell lines after 72 h was determined as described earlier. Control cultures were treated with DMSO alone, and the final concentration of DMSO in the mixture never exceeded 0.6%. Six serial 3-fold dilutions of the test substances were added at time zero in 20 μL aliquots to the microtiter plate wells and the highest final concentration in the wells was 50 μM.
(§4) Table S3: Cytotoxic activities, IC50 (µM/L)a, of compounds in three tumor and one normal fibroblast
(§5) Compound CEM MCF7 HeLa BJ
(§6) a The lowest concentration that kills 50% of cells.
(§7) b Increase of cell proliferation.

[2] = Calcein AM cytotoxicity assay, CEM; type: cell-based; settings: human, CEM T-lymphoblastic leukemia cells, IC50 > 50 µM means inactive, read-out: Cytotoxic activity IC50
Procedure: as §1, §2, §3, §4, §5, §6, §7

[3] = test system: Arabidopsis thaliana L. (Columbia ecotype, Col-0) seedlings; experiment: Arabidopsis root sensitivity bioassay; type: in vivo; settings: for root length, mean: 7-day-old seedlings; for elongation of roots (growth-promoting activity) compared to the control: low concentrations (0.1 and 1 nM)
Procedure: Several bioassays such as the first bean internode, root growth and rice lamina inclination have been developed to evaluate the growth-promoting activity of BR derivatives. In this work, the activity of new BR analogues was evaluated using the Arabidopsis root sensitivity test because of its simplicity and high sensitivity for BRs.. The characteristic effect of exogenously applied BRs on light-grown Arabidopsis is dose-dependent—BRs in higher concentrations cause inhibition of root growth; vice versa, low concentrations are stimulating. The results obtained for 24-epiBL, which was used as a positive control, and the BR derivatives are shown in Figure 2, Figure 3 and Figure S21. […] A similar trend was shown for dimethylammonium hydrochloride 22a and morpholinium hydrochloride 22e with a long side chain. For numerical values of the average, SD and p-value, see Table S2.
The biological activity of the new BRs derivatives was tested by an Arabidopsis sensitivity bioassay which was performed according to [28]. Briefly, seedlings of Arabidopsis thaliana L. (Columbia ecotype, Col-0) were stratified for 2 days at 4 °C and germinated on vertical half-strength Murashige and Skoog (1% w/v sucrose) agar at 22 °C in a 16 h/8 h light–dark cycle. The plates contained concentrations of 24-epiBL (as positive control) and BR derivatives ranging from 0.1 to 10 nM, respectively 100 nM (for selected derivatives only). After 7 days, roots were straightened on solid media plates and scanned with an Epson high-resolution scanner. The entire root length was measured with ImageJ (http://rsbweb.nih.gov/ij/). For each treatment, more than 15 seedlings were analyzed in two biological repeats, and p-values were calculated with the two-tailed Student t-test using Excel software.
(§8) Figure 2 Effect of selected brassinosteroid derivatives on the inhibition of Arabidopsis root length. Seven-day-old Arabidopsis thaliana seedlings (Columbia ecotype, Col-0) were treated with DMSO as control/24epiBL/BR short side chain derivatives; (A)—amides, (B)—amines, (C)—ammonium hydrochlorides. For each treatment, more than 15 seedlings were analyzed in two biological repeats. Error bars represent SD. Asterisks represent significant changes (t-test); * represents p-value < 0.05, in comparison to control.
as §8, with “Figure 3” for “Figure 2”, “control/24epiBL/BR long” for “control/24epiBL/BR short”, “(A)—amides, (B)—ammonium” for “(A)—amides, (B)—amines, (C)—ammonium”
Table S2: Data for figure 2, 3, and S21. P value <0.05(t-test), comparison to control.
control (mean ± SD) 16.3 ± 1.21
*only selected compounds were tested
mean(mm) SD t-test mean (mm) SD t-test mean (mm) SD t-test mean (mm) SD t-test
(1 picture or pasted object on this page, not shown here)

[4] = Calcein AM cytotoxicity assay, MCF7; type: cell-based; settings: human, MCF7 breast carcinoma cells (estrogen-sensitive), MCF7, 72 h, IC50 > 50 µM means inactive, read-out: Cytotoxic activity IC50
Procedure: as §1, §2, §3, §4, §5, §6, §7

[5] = Calcein AM cytotoxicity assay, HeLa; type: cell-based; settings: human, HeLa cervical carcinoma cells, IC50 > 50 µM means inactive, read-out: Cytotoxic activity IC50
Procedure: as §1, §2, §3, §4, §5, §6, §7

[6] = test system: T-lymphoblastic leukemia CEM; design: method as in PMID 17869317; settings: CEM cells; positive control; cited from earlier work
[7] = 100 nM (only selected compounds), control 14.61 ± 0.85

Molecule	biological activity in rice lamina inclination (rice leaf lamina)	IC50 at 72 h [1]	IC50 at 72 h [2]	root length, mean ([3]; 0.1 nM, control 16.3 ± 1.21)	root length, mean ([3]; 1 nM, control 16.3 ± 1.21)	root length, mean ([3]; 10 nM, control 16.3 ± 1.21)	IC50 at 72 h [4]	melting point	IC50 at 72 h [5]	root length, mean [3, 7]	elongation of roots (growth-promoting activity) compared to the control [3]	inhibitory effect on Arabidopsis root growth ([3]; tested 0.1 to 10 nM, selected derivatives also 100 nM)	IC50 [6]
25-azabrassinolide	completely inactive; also recorded: no biological activity												
C[C@H]([C@@H](O)[C@H](O)C(=O)N1CCCCC1)[C@H]1CC[C@H]2[C@@H]3CC(=O)[C@H]4C[C@H](O)[C@H](O)C[C@]4(C)[C@H]3CC[C@]12C [20d, 1-((20S,22R,23S)-2α,3α,22,23-tetrahydroxy-6-oxo-5α-cholan-24-oyl)piperidine]		> 50 µM	> 50 µM	14.37 mm	14.50 mm	14.51 mm	> 50 µM	> 200 °C (dec.)	> 50 µM				
C[C@H]([C@@H](O)[C@H](O)C(=O)N1CCOCC1)[C@H]1CC[C@H]2[C@@H]3CC(=O)[C@H]4C[C@H](O)[C@H](O)C[C@]4(C)[C@H]3CC[C@]12C [20e, 4-((20S,22R,23S)-2α,3α,22,23-tetrahydroxy-6-oxo-5α-cholan-24-oyl)morpholine]		> 50 µM	> 50 µM	17.44 mm	16.78 mm	15.97 mm	> 50 µM	> 210 °C (dec.)	> 50 µM				
C[C@H]([C@@H](O)[C@@H](O)CN(C)C)[C@H]1CC[C@H]2[C@@H]3CC(=O)[C@H]4C[C@H](O)[C@H](O)C[C@]4(C)[C@H]3CC[C@]12C.Cl [22a, N,N-dimethyl-((20S,22R,23S)-2α,3α,22,23-tetrahydroxy-6-oxo-5α-cholan-24-yl)aminium chloride]		> 50 µM	> 50 µM	19.56 mm	18.17 mm	17.11 mm	> 50 µM	> 270 °C (dec.)	> 50 µM	13.464 mm	interesting growth-promoting activity		
CCN(CC)C[C@H](O)[C@H](O)[C@@H](C)[C@H]1CC[C@H]2[C@@H]3CC(=O)[C@H]4C[C@H](O)[C@H](O)C[C@]4(C)[C@H]3CC[C@]12C.Cl [22b, N,N-diethyl-((20S,22R,23S)-2α,3α,22,23-tetrahydroxy-6-oxo-5α-cholan-24-yl)aminium chloride]		> 50 µM	> 50 µM	14.51 mm	15.32 mm	15.48 mm	> 50 µM	> 250 °C (dec.)	> 50 µM	15.160 mm		the same effect only at low concentrations	
C[C@H]([C@@H](O)[C@@H](O)CN1CCCC1)[C@H]1CC[C@H]2[C@@H]3CC(=O)[C@H]4C[C@H](O)[C@H](O)C[C@]4(C)[C@H]3CC[C@]12C.Cl [22c, 1-((20S,22R,23S)-2α,3α,22,23-tetrahydroxy-6-oxo-5α-cholan-24-yl)pyrrolidinium chloride]		> 50 µM	> 50 µM	15.97 mm	14.83 mm	15.81 mm	> 50 µM	> 250 °C (dec.)	> 50 µM				
C[C@H]([C@@H](O)[C@@H](O)CN1CCCCC1)[C@H]1CC[C@H]2[C@@H]3CC(=O)[C@H]4C[C@H](O)[C@H](O)C[C@]4(C)[C@H]3CC[C@]12C.Cl [22d, 1-((20S,22R,23S)-2α,3α,22,23-tetrahydroxy-6-oxo-5α-cholan-24-yl)piperidinium chloride]		> 50 µM	> 50 µM	15.48 mm	15.97 mm	16.62 mm	> 50 µM	> 250 °C (dec.)	> 50 µM				
C[C@H]([C@@H](O)[C@@H](O)CN1CCOCC1)[C@H]1CC[C@H]2[C@@H]3CC(=O)[C@H]4C[C@H](O)[C@H](O)C[C@]4(C)[C@H]3CC[C@]12C.Cl [22e, 4-((20S,22R,23S)-2α,3α,22,23-tetrahydroxy-6-oxo-5α-cholan-24-yl)morpholinium chloride]		> 50 µM	> 50 µM	17.93 mm	17.27 mm	16.95 mm	> 50 µM	> 270 °C (dec.)	> 50 µM		interesting growth-promoting activity		
CCC(C(C)C)C(O)C(O)C(C)C1CCC2C3CC(=O)C4CC(O)C(O)CC4(C)C3CCC12C (stereo not drawn) [28-Homocastasterone]													13 µM
